Assay: solvent given as SMILES

O
Conditions | solvation free energy, 298 K [kcal/mol]
in BrC(Br)Br | -1.76
in BrC(Br)C(Br)Br | -1.63
in BrCCBr | -1.98
in C1CCCCC1 | -0.54
in C1COCCO1 | -4.37
in C=CCCCCCCC=C | -1.19
in C=CCCCCCCCCCCCCCC | -0.63
in CC(C)=O | -4.34
in CC(C)C | -0.64
in CC(C)C(C)C | -0.56
in CC(C)C(C)C(C)C | -0.49
in CC(C)CC(C)(C)C | -0.52
in CC(C)CC(C)C | -0.51
in CC(C)CCC(C)(C)C | -0.49
in CCC | -0.66
in CCC(C)(C)C | -0.51
in CCC(C)=O | -4.02
in CCC(C)C | -0.56
in CCC(C)CC | -0.59
in CCCC(C)C | -0.55
in CCCC(C)CC | -0.47
in CCCCC | -0.64
in CCCCC(=O)CC | -3.3
in CCCCCC | -0.67
in CCCCCCC | -0.72
in CCCCCCCC | -0.73
in CCCCCCCCC | -0.53
in CCCCCCCCCC | -0.48
in CCCCCCCCCCC | -0.47
in CCCCCCCCCCCC | -0.44
in CCCCCCCCCCCCC | -0.4
in CCCCCCCCCCCCCCCC | -0.42
in CCCCCCCCCCO | -3.98
in CCCCCCCCO | -4.15
in CCCCO | -4.5
in CCCCOCCO | -4.6
in CCCO | -4.76
in CCCOCC(C)O | -4.29
in CCO | -5.05
in CN(C)C=O | -5.55
in CNC(C)=O | -5.8
in CNC=O | -5.28
in CO | -5.59
in ClC(Cl)(Cl)Cl | -1.15
in ClC(Cl)=C(Cl)Cl | -1.15
in NC=O | -5.67
in S=C=S | -1.01

CNC(=O)Oc1cccc2ccccc12
Conditions | solvation free energy, 298 K [kcal/mol]
in CCCCCCCCC=CCCCCCCCC(=O)OCC(COC(=O)CCCCCCCC=CCCCCCCCC)OC(=O)CCCCCCCC=CCCCCCCCC | -12.6

Cc1nc(NS(=O)(=O)c2ccc(N)cc2)oc1C
Conditions | solvation free energy, 298 K [kcal/mol]
in O | -17.7

O=[O+][O-]
Conditions | solvation free energy, 298 K [kcal/mol]
in COC(C)=O | -0.29
in O | 0.82

CCC=C(C)C
Conditions | solvation free energy, 298 K [kcal/mol]
in C=CCCCCCCCCCCCCCC | -3.42
in CN1CCCC1=O | -3.06
in CN(C)C=O | -3.12
in O | 1.47

COC(=O)c1ccc(I)cc1
Conditions | solvation free energy, 298 K [kcal/mol]
in CN(C)C=O | -10.7
in O | -5.09

CCCCBr
Conditions | solvation free energy, 298 K [kcal/mol]
in C=CCCCCCCCCCCCCCC | -4.19
in CC(C)(C)O | -4.09
in CC(C)CO | -4.15
in CCC(C)O | -4.19
in CCCCCCCCCCO | -4.19
in CCCCCCCCO | -4.22
in CCO | -4.22
in ClC(Cl)(Cl)Cl | -4.75
in O | -0.34

FC(F)(F)C(F)(F)Cl
Conditions | solvation free energy, 298 K [kcal/mol]
in CCCCCCCCC | -0.87
in CCCCCCCCO | -0.39
in CN1CCCC1=O | 0.07
in CN(C)C=O | -1.54
in O | 2.89

CCCCN
Conditions | solvation free energy, 298 K [kcal/mol]
in C1COCCO1 | -4.48
in CCCCCCCC | -3.44
in CCCCCCCCCC | -3.4
in CCCCCCCCCCCCCCCC | -3.5
in CCCCOCCCC | -3.66
in O | -4.23

Source: the CombiSolv-Exp solvation set (Vermeire and Green 2021)
